# Patent US7556935B2 (Dana-Farber Cancer Institute, Inc., priority 2001, dated 2009)
# Residues, ends and D or L forms follow the SMILES beside them. *: point of attachment. Cbz = O=C(OCc1ccccc1)*
# Legend:
# c-Abl [1] = assay: c-Abl targeting to mitochondria under ER stress, immunofluorescence and immunoblot; assay type: cell-based
# Procedure: (§1) Cells were treated with A23187 (Sigma) or Brefeldin A (Sigma).
# Digital confocal immunofluorescence microscope: Cells grown on poly-D-lysine coated glass coverslips were fixed (3.7% formaldehyde in PBS, pH 7.4; 10 minutes), permeabilized (0.2% Triton X-100; 10 min), blocked for 30 minutes in media containing serum. After rinsing with PBS, immunostaining was performed by incubating the cells with 50 ng/slide of anti-c-Abl (K-12 rabbit polyclonal; Santa Cruz) and anti-grp-78 (C-20 goat polyclonal; Santa Cruz). For c-Abl and calreticulin staining, cells were incubated first with anti-c-Abl alone for 1 hour followed by blocking for 30 minutes in media containing serum. After washing with PBS, cells were then incubated with anti-calreticulin (rabbit polyclonal; StressGen). Finally, cells were incubated with a 1:250 dilution of CY-3 or Fluorescein (FITC)-conjugated anti-rabbit or anti-goat secondary antibodies (Jackson ImmunoResearch) for 1 hour. Mitochondria were stained with 0.006 ng/slide Mitotracker Green FM (Molecular Probes). Nuclei were stained with 4,6-diamino-2-phenylindole (DAPI; 1 mg/ml in PBS). Coverslips were mounted onto slides with 0.1 M Tris (pH 7.0) in 50% glycerol. Cells were visualized by digital confocal immunofluorescence and images were captured with cooled CCD camera mounted on a Zeiss Axioplan 2 microscope. Images were deconvolved using Slidebook software (Intelligent Imaging Innovations, Inc., Denver, Colo.).
# (§2) The supernatant was collected and centrifuged at 10,000×g for 10 minutes. […] Protein concentration was determined by the Bio-Rad protein estimation kit.
# c-Abl [2] = assay: c-Abl levels in cytoplasmic and nuclear fractions, ER stress; assay type: cell-based
# Text: (§3) Isolation of cytoplasmic and nuclear fractions: The cytoplasmic and nuclear fractions were isolated as described in Example 1.
# c-Abl [3] = assay: Mitochondrial c-Abl kinase activity, GST-Crk(120-225) phosphorylation, ER stress; assay type: cell-based; details: anti-c-Abl immunoprecipitates of mitochondrial fraction
# Procedure: as §2
# Analysis of c-Abl activity: Cell lysates were prepared as described in Example 1 and subjected to immunoprecipitation with anti-c-Abl (K-12; Santa Cruz). The immunoprecipitates were resuspended in kinase buffer (see Example 1) containing […] of [g-32P]ATP and GST-Crk(120-225) or GST-Crk(120-212) for 15 minutes at 30° C. The reaction products were analyzed by SDS-PAGE and autoradiography.
# grp78 = grp78 expression in the ER fraction, ER stress; assay type: cell-based
# Procedure: as §1
# (§4) Isolation of the ER fraction: Cells were washed with PBS, lysed in homogenization buffer (50 mM Tris-HCl, pH 8.0, 1 mM b-mercaptoethanol, 1 mM EDTA, 0.32 M sucrose and 0.1 mM PMSF), and then centrifuged at 5,000×g for 10 minutes. The supernatant was collected and centrifuged at 105,000×g for 1 hour. […] The resulting supernatant was used as the ER fraction.
# c-Abl [4] = assay: c-Abl levels in the ER fraction, ER stress; assay type: cell-based
# Procedure: as §1, §4
# MEFs = assay: Apoptosis by sub-G1 DNA in MEFs under ER stress; assay type: cell-based, mouse
# Procedure: Apoptosis assays: DNA content was assessed by staining ethanol-fixed cells with propidium iodide and monitoring by FACScan (Becton-Dickinson).
# cytochrome c [5] = assay: Cytochrome c release in MEFs under ER stress; assay type: cell-based, mouse; details: wild-type MEFs
# Procedure: as §1, §3
# MCF-7/neo cells = assay: Apoptosis by sub-G1 DNA content in MCF-7/neo cells
# c-Abl [6] = assay: c-Abl activity in cytoplasts devoid of nuclei; assay type: cell-based
# Procedure: (§5) Analysis of kinase activity: Cell lysates were prepared in lysis buffer (10 mM Tris-HCl, pH 7.5, 10 mM NaCl, 1 mM DTT, 0.1 mM EDTA, 3 mM MgCl2, 0.5 mM PMSF, 5 μg/ml leupeptin) containing 0.5% Nonidet P-40 and subjected to immunoprecipitation as described (Kharbanda et al. (1997) Nature 386, 732-735) with anti-c-Abl (sc-23; Santa Cruz) or mouse IgG (Santa Cruz). The immunoprecipitates were resuspended in kinase buffer (20 mM HEPES, pH 7.4, 10 mM MgCl2, 10 mM MnCl2) containing 2.5 μCi [g-32P]ATP and GST-Crk(120-225) or GST-Crk(120-212) for 20 minutes at 30° C. Anti-PKCd (sc-937; Santa Cruz) and anti-ERK1 (sc-93; Santa Cruz) immunoprecipitates were analyzed by using histone H1 and myelin basic protein (Upstate Biotecnology Inc.), respectively, as substrates. The reaction products were analyzed by SDS-PAGE and autoradiography.
# PKCd [7] = target: PKCd (Mus musculus, UniProt P28867); details: NIH3T3 cells, H2O2
# Chain of PKCd (Mus musculus, UniProt P28867) (P28867 whole entry): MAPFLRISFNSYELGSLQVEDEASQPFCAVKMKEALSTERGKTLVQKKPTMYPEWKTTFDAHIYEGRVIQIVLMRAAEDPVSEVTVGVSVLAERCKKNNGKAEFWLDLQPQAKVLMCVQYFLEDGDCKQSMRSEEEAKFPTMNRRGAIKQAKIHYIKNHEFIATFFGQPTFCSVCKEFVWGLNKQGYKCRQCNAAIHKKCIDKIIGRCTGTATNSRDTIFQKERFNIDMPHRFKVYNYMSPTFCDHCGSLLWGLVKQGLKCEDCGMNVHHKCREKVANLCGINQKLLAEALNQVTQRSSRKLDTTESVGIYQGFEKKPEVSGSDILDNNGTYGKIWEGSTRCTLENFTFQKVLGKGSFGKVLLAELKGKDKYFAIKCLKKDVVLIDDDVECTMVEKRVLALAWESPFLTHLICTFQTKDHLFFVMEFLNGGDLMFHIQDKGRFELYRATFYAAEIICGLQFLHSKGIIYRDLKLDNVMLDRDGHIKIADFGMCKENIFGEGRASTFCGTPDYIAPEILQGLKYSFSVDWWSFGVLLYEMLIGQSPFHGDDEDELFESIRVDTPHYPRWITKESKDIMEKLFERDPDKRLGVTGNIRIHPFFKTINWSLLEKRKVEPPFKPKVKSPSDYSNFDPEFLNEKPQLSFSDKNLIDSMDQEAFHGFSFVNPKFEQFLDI
# Procedure: (§6) Transfections were performed with Superfect (Qiagen).
# (§7) The supernatants (S1) were collected.
# c-Abl [8] = assay: c-Abl immune complex kinase assay, phosphorylation of GST-Crk(120-225), COS7 cells; assay type: cell-based
# Procedure: (§8) Cell culture: COS7 cells and mouse embryonic fibroblasts (MEFs) derived from wild-type and c-Abl^−/− mice were cultured in Dulbecco's modified Eagle's medium containing 10% heat-inactivated fetal calf serum, 2 mM L-glutamine, 100 units/ml penicillin and 100 μg/ml streptomycin. DLD1 cells were grown as described (Polyak et al. (1997) Nature 389, 300-305). Cells were treated with H2O2 (Sigma), 30 mM N-acetyl-L-cysteine (NAC; Sigma) or 10 μM cis-platinum (Sigma).
# as §5
# [9] = tested on: mitochondrial transmembrane potential; assay: Mitochondrial transmembrane potential, Rhodamine 123 staining, MEFs; details: wild-type cells, H2O2
# cytochrome c [10] = assay: Cytochrome c release in U-937 cells, immunoblot of cytoplasmic fractions; assay type: cell-based, human; details: U-937 cells, agent alone
# Procedure: (§9) Cells were also treated with 10 μM rottlerin (Calbiochem).
# as §6
# (§10) The cells were disrupted by Douce homogenization.
# PKCd [11] = target: PKCd (Homo sapiens, UniProt Q05655); assay: PKCd translocation to mitochondria in U-937 cells, immunoblot of fractions; assay type: cell-based; parameters: subjecting cytoplasmic and mitochondrial fractions to immunoblotting with anti-PKC antibodies; endogenous in cells; host or cells: U-937; details: 1 mM H2O2
# Chain of PKCd (Homo sapiens, UniProt Q05655) (Q05655 whole entry): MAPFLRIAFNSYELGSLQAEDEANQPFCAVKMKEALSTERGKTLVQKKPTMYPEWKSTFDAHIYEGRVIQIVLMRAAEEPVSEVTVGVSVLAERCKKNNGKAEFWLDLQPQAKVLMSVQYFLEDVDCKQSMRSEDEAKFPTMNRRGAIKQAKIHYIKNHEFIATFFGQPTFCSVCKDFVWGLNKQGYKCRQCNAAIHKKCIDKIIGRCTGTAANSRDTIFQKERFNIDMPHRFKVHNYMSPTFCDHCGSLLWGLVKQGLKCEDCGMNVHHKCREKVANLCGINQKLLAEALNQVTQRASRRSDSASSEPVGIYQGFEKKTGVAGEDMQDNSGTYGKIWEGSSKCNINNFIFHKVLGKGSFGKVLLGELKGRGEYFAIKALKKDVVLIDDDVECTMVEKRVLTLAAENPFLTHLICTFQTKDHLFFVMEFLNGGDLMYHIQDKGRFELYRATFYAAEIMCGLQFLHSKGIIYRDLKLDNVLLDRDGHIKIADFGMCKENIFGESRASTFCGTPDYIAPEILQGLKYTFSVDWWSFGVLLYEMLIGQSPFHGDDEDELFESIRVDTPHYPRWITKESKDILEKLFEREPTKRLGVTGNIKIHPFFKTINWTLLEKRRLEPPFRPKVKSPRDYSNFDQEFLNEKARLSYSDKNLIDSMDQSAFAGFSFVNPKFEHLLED
# Procedure: as §9
# Mitochondria were stained with 0.006 ng/slide of Mitotracker Green FM (Molecular Probes). The slides were analyzed using a Zeiss Auxiphot fluorescence microscope coupled to a CCD camera and a power Macintosh 8100. Image analysis was performed using the IPLab Spectrum 3.1 software (Signal Analytics).
# as §6, §10, §7
# Mitochondria were stained with 0.006 ng/slide of Mitotracker Green FM (Molecular Probes). The slides were analyzed with a Zeiss Auxiphot fluorescence microscope coupled to a CCD camera and a power Macintosh 8100. Image analysis was performed using the IPLab Spectrum 3.1 software (Signal Analytics).
# PKCζ = assay: Cytoplasmic or mitochondrial PKCζ levels in U-937 cells, immunoblot; details: H2O2
# ATP levels = details: wild-type and c-Abl+ cells, H2O2
# Procedure: Quantitation of ATP: ATP levels were measured using an ATP Determination Kit (Molecular Probes).
# cytochrome c [12] = details: wild-type MEFs
# Procedure: as §8
# PKCγ = PKCγ (Homo sapiens, UniProt P05129); assay: Cytoplasmic or mitochondrial PKCγ levels in U-937 cells, immunoblot; details: H2O2
# c-Abl [13] = assay: c-Abl translocation to mitochondria in MEFs, oxidative stress; assay type: cell-based, mouse
# Procedure: Cells were treated with 1 mM H2O2 (Sigma) and 30 mM N-acetyl-L-cysteine (NAC; Sigma). Transient transfections were performed in the presence of calcium phosphate.
# Immunofluorescence microscopy: Cells were plated onto poly D-lysine coated glass coverslips 1 day prior to H2O2 treatment (1 hour) and then fixed with 3.7% formaldehyde/PBS (pH 7.4) for 10 minutes. Cells were washed with PBS, permeabilized with 0.2% Triton X-100 for 10 minutes, washed again and incubated for 30 minutes in complete medium. The coverslips were then incubated with […] of anti-c-Abl (K-12) for 1 hour followed by Texas Red-goat anti-rabbit Ig (H+L) conjugate (Molecular Probes, Eugene, Oreg.). Mitochondria were stained with 100 nM Mitotracker Green FM (Molecular Probes, OR). Nuclei were stained with 4,6-diamino-2-phenylindole (DAPI; 1 mg/ml in PBS). Coverslips were mounted onto slides with 0.1 M Tris (pH 7.0) in 50% glycerol. Cells were visualized by digital confocal immunofluorescence and images were captured with a cooled CCD camera mounted on a Zeiss Axioplan 2 microscope. Images were deconvolved using Slidebook software (Intelligent Imaging Innovations, Inc., Denver, Colo.).
# Protein concentration was determined by the Bio-Rad protein estimation kit.
# Preparation of cell lysates: Whole cell lysates (WCL) were prepared as described (Kharbanda et al. (1995) Nature 376, 785-788) and analyzed for protein concentration.
# Immunoprecipitation and immunoblot analysis. Soluble proteins ([…]) were incubated with anti-c-Abl (K-12; Santa Cruz Biotechnology) for 1 hour and precipitated with protein A-sepharose for 30 minutes. Immunoprecipitates and lysates ([…]) were resolved by SDS-PAGE and analyzed by immunoblotting with anti-c-Abl (24-11; Santa Cruz), anti-HSP60 (Stressgen, Victoria, British Columbia), anti-b-actin (Sigma) anti-PCNA (Calbiochem), anti-PDGF receptor (Oncogene) and anti-PKCd (Santa Cruz).
# 26S proteosome = assay: In vitro Ub-proteosome system, degradation of catalase; assay type: biochemical
# Text: As a control, degradation was inhibited when [g-S]ATP was substituted for ATP to prevent ubiquitination. […] Lactacystin, another proteosome inhibitor, was used to assess degradation of catalase in cells.
smiles,measurement,setting,value
CNc1ccc2oc(C[C@H]3O[C@@]4(CC[C@H]3C)O[C@H]([C@H](C)C(=O)c3ccc[nH]3)[C@H](C)C[C@H]4C)nc2c1C(=O)O [A23187],"translocation of c-Abl to mitochondria, intracellular fluorescence",c-Abl [1]; anti-c-Abl and Mitotracker signals,translocation of c-Abl to mitochondria
same,"c-Abl protein in the mitochondrial fraction, immunoblot",c-Abl [1]; mitochondrial fraction,time-dependent increase
same,c-Abl levels in the cytoplasm or nucleus,c-Abl [2],little if any effect
same,mitochondrial c-Abl activity,c-Abl [3],increases in mitochondrial c-Abl activity
same,expression of grp78,grp78,increases in expression of grp78
same,c-Abl levels in the ER fraction,c-Abl [4],time-dependent decrease
same,induction of apoptosis,MEFs; c-Abl−/− cells,little effect
same,"apoptosis, sub-G1 DNA",MEFs; wild-type cells,induction of sub-G1 DNA
same,release of cytochrome c,cytochrome c [5],induces the release of cytochrome c
"OO [H2O2, hydrogen peroxide]",apoptosis,MCF-7/neo cells,induction of apoptosis
same,c-Abl activity in cytoplasts,c-Abl [6],induction of c-Abl activity
same,localization of PKCd to mitochondria,PKCd [7],localization of PKCd to mitochondria
same,stimulation of the Crk kinase activity of anti-c-Abl immunoprecipitates,"c-Abl [8]; COS7 cells exposed to H2O2, GST-Crk(120-225) substrate",4-5 fold
same,time of maximal induction of c-Abl activity,c-Abl [8]; H2O2 exposure,30 to 60 min
same,induction of c-Abl activity,c-Abl [8]; exposure to 1 mM H2O2,5 fold
same,mitochondrial transmembrane potential (Ψ),[9],substantially diminished
same,cytochrome c release,cytochrome c [10],induces cytochrome c release
same,mitochondrial PKCd,PKCd [11],increases in mitochondrial PKCd
same,mitochondrial levels of PKCζ,PKCζ,little if any effect
same,ATP levels,ATP levels,depletion of ATP
same,cytochrome c in cytoplasmic lysates,cytochrome c [12],increased levels of cytochrome c
same,mitochondrial levels of PKCγ,PKCγ,little if any effect
same,total c-Abl that localizes to mitochondria,"c-Abl [13]; MEFs following H2O2, approximately 4% without treatment",approximately 20%
same,"increase in mitochondrial c-Abl protein, densitometric scanning","c-Abl [13]; MEFs, 0.5 to 1 hour of H2O2 treatment",> 5 fold
CC(C)C[C@@H](C=O)NC(=O)[C@H](CC(C)C)NC(=O)[C@H](CC(C)C)NC(=O)OCc1ccccc1 [MG132] (Cbz-Leu-Leu-Leu-aldehyde),degradation of catalase,26S proteosome,blocked
